# Measured values: US20050196492A1, “Food preservative method and system using vanillin and constituent having isothiocynate compound” (priority 2004, published 2005)
# Assays:
# Rhizopusus stolonifer = assay: Combination of vanillin and VOM (AIT) in MRE package, growth grid; format: cell-based, Rhizopus stolonifer; details: Vanillin 0 ppm
# Protocol: (§1) Four bread spoilage organisms were used in determining the inhibition properties of vanillin and VOM: (1) Penicillium notatum, (2) Rhizopus stolonifer, (3) Aspergillus niger and (4) Saccharomycopsis fibuligera. For purposes of this analysis, Wasaouro® was used as the source of VOM. The antimicrobial tests were conducted in MRE air-impermeable laminated packages without bread. Petri dishes containing the appropriate growth medium were inoculated with a selected spoilage organism and then sealed with various concentrations of vanillin and/or Wasaouro®. The vanillin was incorporated directly into the growth medium while the Wasaouro® was kept separate from the organism within the MRE package. […] Wasaouro® was effective at low headspace concentrations (e.g. 17 μg/L (AIT)) with the exception of Rhizopus stolonifer which is resistant to AIT even at much higher concentrations.
# Penicillium notatum = assay: Antimicrobial properties of VOM (Wasaouro vapor) alone in MRE package, growth/no growth; format: cell-based; details: AIT by gas chromatography at time zero, 25° C., seven days
# Protocol: (§2) Similarly, the antimicrobial properties of VOM (without vanillin) were evaluated against the four organisms shown in Table I. In order to evaluate the antimicrobial properties of VOM against each of these foregoing organisms, the modeling system employed several MRE packages. Each MRE package contained two Petri dishes. One Petri dish, 100 mm×15 mm, contained a medium and a selected organism. […] The cellulose filter pad for each 60 mm×15 mm Petri dish received a measured quantity of Wasaouro®. A stock solution of Wasaouro® powder was made and volumes of 100, 200, 400, 600, 800 and 1000 μl were added respectively to the filter pads of the 60 mm×15 mm Petri dishes for each group. […] The amount of the volatile active component of Wasaouro®, allyl isothiocyanate, was determined using gas chromatography. Each Petri dish in the first group was inoculated with Penicillium notatum, inoculum 10^5 spores/ml. Each Petri dish in the first group was then uncovered and placed in its own MRE impermeable laminated package. Similarly, each Petri dish in the second group of Petri dishes was inoculated with Rhizopus stolonifer, inoculum 10^5 spores/ml. Each Petri dish in the second group was then uncovered and then placed in its own MRE impermeable laminated package. In a similar manner, each Petri dish in the third group of Petri dishes was inoculated with Aspergillus niger, inoculum 10^5 spores/ml. Each Petri dish in the third group was then uncovered and then placed in its own MRE impermeable laminated package. Similarly, each Petri dish in the fourth group of Petri dishes was inoculated with Saccharomycopsis fibuligera, inoculum 10^5 spores/ml. Each Petri dish in the fourth group was then uncovered and then placed in its own MRE impermeable laminated package. All MRE packages (for all groups of Petri dishes) were then incubated at 25° C. for seven days. The determination of effectiveness of VOM as an antimicrobial agent was based on a growth or no growth basis. Petri dishes with no growth were left out for seven days after removal from the MRE package to ensure that there was no additional growth. For each experiment, a set of control MRE packages were made with the various concentrations of Wasaouro®. These control packages were used to extrapolate the relative amounts of allyl isothiocyanate in the experimental MRE packages at time zero.
# Rhizopus stolonifer = assay: as above; format: cell-based
# Protocol: as §2
# Aspergillus niger [1] = assay: as above; format: cell-based; details: AIT by gas chromatography at time zero, 25° C., seven days
# Protocol: as §2
# [2] = test system: Saccharomycopsis fibuligera; assay: as above; format: cell-based; details: AIT by gas chromatography at time zero, 25° C., seven days
# Protocol: as §2
# Aspergillus niger [3] = assay: Combination of vanillin and VOM (AIT) in MRE package, growth grid; format: cell-based; details: for growth of Aspergillus niger: Vanillin 0 ppm
# Protocol: as §1
# Next, both antimicrobial agents were tested against two of the more resistant organisms, Rhizopus stolonifer and Aspergillus niger.
# [4] = test system: Rhizopusus stolonifer and Aspergillus niger; assay: Combination of vanillin and VOM (AIT) in MRE package, growth grid, both fungi; format: cell-based, Rhizopus stolonifer and Aspergillus niger; details: Vanillin 0 ppm
# Protocol: as §1
smiles,measurement,setting,value
"C=CCN=C=S [AIT, allyl isothiocyanate]",growth of Rhizopusus stolonifer,Rhizopusus stolonifer; AIT 55 ug/L,Growth
same,growth of Rhizopusus stolonifer,Rhizopusus stolonifer; AIT 145 ug/L,Growth
same,growth of Rhizopusus stolonifer,Rhizopusus stolonifer; AIT 150 ug/L,Growth
same,growth of Rhizopusus stolonifer,Rhizopusus stolonifer; AIT 420 ug/L,Growth
same,growth of Rhizopusus stolonifer,Rhizopusus stolonifer; AIT 465 ug/L,Growth
same,growth of Rhizopusus stolonifer,Rhizopusus stolonifer; AIT 905 ug/L,Growth
same,Effective Amount Of Allyl Isothiocyanate,Penicillium notatum,˜17 ppm
same,Effective Amount Of Allyl Isothiocyanate,"Rhizopus stolonifer; Wasaouro vapor in MRE package, AIT by gas chromatography at time zero, 25° C., seven days",>470 ppm
same,susceptibility of Rhizopus stolonifer to AIT,Rhizopus stolonifer; even at much higher concentrations than 17 μg/L,resistant
same,Effective Amount Of Allyl Isothiocyanate,Aspergillus niger [1],˜17 ppm
same,Effective Amount Of Allyl Isothiocyanate,[2],˜8 ppm
same,sensitivity of Aspergillus niger to AIT,Aspergillus niger [3],very sensitive
same,growth of Aspergillus niger,Aspergillus niger [3]; AIT 55 ug/L,Growth
same,growth of Aspergillus niger,Aspergillus niger [3]; AIT 145 ug/L,N/G
same,growth of Aspergillus niger,Aspergillus niger [3]; AIT 150 ug/L,Growth
same,growth of Aspergillus niger,Aspergillus niger [3]; AIT 420 ug/L,N/G
same,growth of Aspergillus niger,Aspergillus niger [3]; AIT 465 ug/L,N/G
same,growth of Aspergillus niger,Aspergillus niger [3]; AIT 905 ug/L,N/G
same,growth of Rhizopusus stolonifer and Aspergillus niger,[4]; AIT 55 ug/L,Growth
same,growth of Rhizopusus stolonifer and Aspergillus niger,[4]; AIT 145 ug/L,Growth
same,growth of Rhizopusus stolonifer and Aspergillus niger,[4]; AIT 150 ug/L,Growth
same,growth of Rhizopusus stolonifer and Aspergillus niger,[4]; AIT 420 ug/L,Growth
same,growth of Rhizopusus stolonifer and Aspergillus niger,[4]; AIT 465 ug/L,Growth
same,growth of Rhizopusus stolonifer and Aspergillus niger,[4]; AIT 905 ug/L,Growth
